From PubChem BioAssay AID1963959 (Molecular Pharmacology Branch, DTP, NCI, 2024)

Test system: T-47D spheroids with HUVEC/MSC, viability
Test: Anticancer human tumor T-47D cell line growth inhibition [PI3K];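 note: spheroids exposed to agents for seven days before reading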;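 for viability, T/C: percent of DMSO vehicle control luminescence so 100% = untreated growth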
Conditions: for IC50: curve of first compound; for viability, T/C: stronger effect = lower value
From the text: Combinatorial screen of targeted agents with the PI3K inhibitors inavolisib, alpelisib, duvelisib, and copanlisib in multi-cell type tumor spheroids
A high-throughput screen of multi-cell type tumor spheroids was designed to identify active combinations of targeted small molecules and PI3K pathway inhibitors. Complex spheroids include a stromal component modeled by human endothelial cells (HUVEC) and fibroblasts modeled by human mesenchymal stem cells (MSCs). The concentration ranges selected for each drug and investigational agent were based upon clinically achievable concentrations if the clinical Cmax of the agent was known.
Compounds. The drugs and investigational agents: inavolisib (NSC800729), alpelisib (NSC765974), duvelisib (NSC772469), copanlisib (NSC816437), ipatasertib (NSC767898), afuresertib (NSC778305), talazoparib (NSC767125), sapanisertib (NSC764658), selumetinib (NSC741078), tovorafenib (DAY101, NSC766906), vemurafenib (NSC761431), ravoxertinib (NSC781343), sotorasib (NSC818433), MRTX1133 (NSC 836407), abemaciclib (NSC 768073), palbociclib (NSC758247), venetoclax (NSC 766270), SY5609 (NSC837396), enzalutamide (NSC755605), and darolutamide (NSC825331), were obtained from the National Cancer Institute (NCI) Developmental Therapeutics Program Chemical Repository. The FDA-approved anticancer drug set is available from the NCI Developmental Therapeutics Program. […] The stock solutions were prepared in dimethyl sulfoxide (DMSO, Sigma-Aldrich, St. Louis, MO, cat. D2650) at 800-fold the tested concentration and stored at -70 degrees C prior to their use. All drugs and investigational agents were tested over a range starting from a high concentration at or near the clinical Cmax and decreasing in half-log increments. If the clinical Cmax for an agent had not been determined, the highest concentration tested was 10 microM.
Cell Culture. All cells were maintained in an incubator at 37 degrees C and 5% CO2 with 95% humidity. The PDC lines were cultured according to standard operating procedures established by the NCI PDMR (https://pdmr.cancer.gov/sops/default.htm). All PDCs were thawed and cultured in Matrigel-coated flasks prepared with a working solution of 1X Ham's F-12 nutrient mix, without supplementation (Invitrogen, Waltham, MA, cat. 11765054), 100 U/mL penicillin-streptomycin (Invitrogen, cat. 15140122), and 2.5% Matrigel (Corning Inc., Corning, NY, cat. 354248) for the first three passages. The 354836-022-R-J1-PDC, 475296-252-R-J1-PDC, and 997726-040-R-J2-PDC lines were cultured in 6A media, which includes advanced DMEM/F-12 (Thermo Fisher Scientific, cat. 12634028), 10 mM HEPES (Thermo Fisher Scientific, cat. 15630080), 1X GlutaMAX supplement (Thermo Fisher Scientific, cat. 35050061), 0.1 mg/mL primocin (InvivoGen, San Diego, CA, cat. ant-pm-2), 10% defined fetal bovine serum, heat inactivated (HyClone Laboratories Inc., Logan, UT, cat. SH30070.03HI), 50% L-WRN conditioned media (ATCC, cat. CRL-3276), 1.25 mM N-Acetyl-L-cysteine (Sigma-Aldrich, cat. A9165), 10 mM nicotinamide (Sigma-Aldrich, cat. N0636), 1X B-27 supplement (Thermo Fisher Scientific, cat. 17504044), 1X N-2 supplement (Thermo Fisher Scientific, cat. 17502048), and 10 microM Y-27632 dihydrochloride (Tocris Bioscience, Bristol, United Kingdom, cat. 1254). The 624824-186-R-J2-PDC line was cultured in 6C/Colon 1B media, which includes all 6A media components plus 50 ng/mL human EGF recombinant protein (Thermo Fisher Scientific, cat. PHG0311). […]

[1] = second compound 0.0316 µM, first compound 0.0316 µM
[2] = second compound 0.0316 µM, first compound 0.1 µM
[3] = second compound 0.0316 µM, first compound 0.316 µM
[4] = second compound 0.0316 µM, first compound 1 µM
[5] = second compound 0.0316 µM, first compound 3.16 µM
[6] = second compound 0.0316 µM, first compound 10 µM
[7] = second compound 0.1 µM, first compound 0.0316 µM
[8] = second compound 0.1 µM, first compound 0.1 µM
[9] = second compound 0.1 µM, first compound 0.316 µM
[10] = second compound 0.1 µM, first compound 1 µM
[11] = second compound 0.1 µM, first compound 3.16 µM
[12] = second compound 0.1 µM, first compound 10 µM
[13] = second compound 0.316 µM, first compound 0.0316 µM
[14] = second compound 0.316 µM, first compound 0.1 µM
[15] = second compound 0.316 µM, first compound 0.316 µM
[16] = second compound 0.316 µM, first compound 1 µM
[17] = second compound 0.316 µM, first compound 3.16 µM
[18] = second compound 0.316 µM, first compound 10 µM
[19] = second compound 1 µM, first compound 0.0316 µM
[20] = second compound 1 µM, first compound 0.1 µM
[21] = second compound 1 µM, first compound 0.316 µM
[22] = second compound 1 µM, first compound 1 µM
[23] = second compound 1 µM, first compound 3.16 µM
[24] = second compound 1 µM, first compound 10 µM
[25] = second compound 3.16 µM, first compound 0.0316 µM
[26] = second compound 3.16 µM, first compound 0.1 µM
[27] = second compound 3.16 µM, first compound 0.316 µM
[28] = second compound 3.16 µM, first compound 1 µM
[29] = second compound 3.16 µM, first compound 3.16 µM
[30] = second compound 3.16 µM, first compound 10 µM
[31] = second compound 10 µM, first compound 0.0316 µM
[32] = second compound 10 µM, first compound 0.1 µM
[33] = second compound 10 µM, first compound 0.316 µM
[34] = second compound 10 µM, first compound 1 µM
[35] = second compound 10 µM, first compound 3.16 µM
[36] = second compound 10 µM, first compound 10 µM

CNC(=O)c1ccc(N2C(=S)N(c3ccc(C#N)c(C(F)(F)F)c3)C(=O)C2(C)C)cc1F + Cc1nc(NC(=O)N2CCCC2C(N)=O)sc1-c1ccnc(C(C)(C)C(F)(F)F)c1
IC50 (second compound 0.0316 µM): > 10 µM
IC50 (second compound 0.1 µM): > 10 µM
IC50 (second compound 0.316 µM): > 10 µM
IC50 (second compound 1 µM): > 10 µM
IC50 (second compound 3.16 µM): > 10 µM
IC50 (second compound 10 µM): < 0.0316 µM
viability, T/C [1]: 113%
viability, T/C [2]: 82%
viability, T/C [3]: 97%
viability, T/C [4]: 87.1%
viability, T/C [5]: 91.1%
viability, T/C [6]: 87.9%
viability, T/C [7]: 111%
viability, T/C [8]: 96.5%
viability, T/C [9]: 93.2%
viability, T/C [10]: 88.4%
viability, T/C [11]: 97.7%
viability, T/C [12]: 84.9%
viability, T/C [13]: 91.8%
viability, T/C [14]: 85%
viability, T/C [15]: 94.3%
viability, T/C [16]: 85.9%
viability, T/C [17]: 101%
viability, T/C [18]: 88.5%
viability, T/C [19]: 82.9%
viability, T/C [20]: 96.4%
viability, T/C [21]: 85.1%
viability, T/C [22]: 78.3%
viability, T/C [23]: 91.9%
viability, T/C [24]: 66.8%
viability, T/C [25]: 72%
viability, T/C [26]: 76%
viability, T/C [27]: 72.2%
viability, T/C [28]: 69.5%
viability, T/C [29]: 62.3%
viability, T/C [30]: 58%
viability, T/C [31]: 43.2%
viability, T/C [32]: 41.2%
viability, T/C [33]: 40.5%
viability, T/C [34]: 44.5%
viability, T/C [35]: 33.7%
viability, T/C [36]: 30.4%

CC1(C)CCC(CN2CCN(c3ccc(C(=O)NS(=O)(=O)c4ccc(NCC5CCOCC5)c([N+](=O)[O-])c4)c(Oc4cnc5[nH]ccc5c4)c3)CC2)=C(c2ccc(Cl)cc2)C1 + Cc1nc(NC(=O)N2CCCC2C(N)=O)sc1-c1ccnc(C(C)(C)C(F)(F)F)c1
IC50 (second compound 0.0316 µM): > 10 µM
IC50 (second compound 0.1 µM): > 10 µM
IC50 (second compound 0.316 µM): > 10 µM
IC50 (second compound 1 µM): > 10 µM
IC50 (second compound 3.16 µM): > 10 µM
IC50 (second compound 10 µM): < 0.0316 µM
viability, T/C [1]: 106%
viability, T/C [2]: 94.2%
viability, T/C [3]: 111%
viability, T/C [4]: 99.2%
viability, T/C [5]: 78.1%
viability, T/C [6]: 87.8%
viability, T/C [7]: 118%
viability, T/C [8]: 92.3%
viability, T/C [9]: 92.9%
viability, T/C [10]: 89.6%
viability, T/C [11]: 108%
viability, T/C [12]: 73.3%
viability, T/C [13]: 98.8%
viability, T/C [14]: 101%
viability, T/C [15]: 89.3%
viability, T/C [16]: 94.3%
viability, T/C [17]: 94%
viability, T/C [18]: 80.1%
viability, T/C [19]: 99.4%
viability, T/C [20]: 99.1%
viability, T/C [21]: 102%
viability, T/C [22]: 85.3%
viability, T/C [23]: 76.9%
viability, T/C [24]: 71.2%
viability, T/C [25]: 78.5%
viability, T/C [26]: 65.6%
viability, T/C [27]: 64.2%
viability, T/C [28]: 59.8%
viability, T/C [29]: 64.5%
viability, T/C [30]: 57.1%
viability, T/C [31]: 40.1%
viability, T/C [32]: 41.7%
viability, T/C [33]: 37%
viability, T/C [34]: 31.4%
viability, T/C [35]: 30.2%
viability, T/C [36]: 34.2%
